One may read the IC50 as the concentration at which inhibition is half-maximal. Usually melting point stands for the temperature, or range, at which the solid turns liquid.

Series [1] relates to breast cancer cells MCF-7. More on the design: method as in PMID 32364671. To be noted: cited from earlier work.
In a further series the test system is GL-1 cells. Put plainly: MTT cytotoxicity, GL-1. In kind it is cell-based, canine. To be noted: Canis lupus familiaris; GL-1, MTT, 72 h, mean ± SD; read-out: IC50 values after 72 h. The source says: (§1) The study involved four canine cancer cell lines: RDSVS-TCC1 and K9NK (bladder cancer), CLBL-1 (B-cell lymphoma), GL-1 (B/T-cell leukemia) and noncancerous cell line CF2TH (fetal canine thymus). CLBL-1 was obtained from Barbara C.Ruetgen from the Institute of Immunology, Department of Pathobiology, University of Veterinary Medicine, Vienna[48]. GL-1 from Yasuhito Fujino and Hajime Tsujimoto of the University of Tokyo, Department of Veterinary Internal Medicine[49]. The CF2TH cell line was purchased from American Type Culture Collection (ATCC, Rockville, MD, USA).
(§2) The cell lines were maintained in RPMI- 1640 (CLBL-1, GL-1 and CF2TH) (Gibco, Grand Island, NY, USA) or DMEM (Institute of Immunology and Experimental Therapy, Polish Academy of Sciences, Wrocław, Poland) (RDSVS-TCC1, K9NK) culture medium supplemented with 10% fetal bovine serum FBS (Gibco, Grand Island, NY, USA), 100 units/mL penicillin and […] streptomycin and 1% of L-glutamine (Sigma Aldrich, Steinheim, Germany).
(§3) The cytotoxicity assay was determined by MTT test after 72 h of treatment, according to the procedure described previously[50] with minor modifications.
(§4) In summary, the cells plated at the density of 3*10^4 (k9NK, RDSVS-TCC1), 2*10^5 (CLBL-1, GL-1) and 7.5*10^3 (CF2TH) per mililiter were seeded in 96-well plates (NUNC, Denmark).
(§5) The concentration of tested flavonoids was in the range 1.25–50 µM and DMSO concentration was < 1% in each dilution which is considered harmless to the cells). After incubation for 72 h, 10 µl of 3-(4,5-dimethylthiazol-2-yl)-2,5-diphenyltetrazolium bromide (MTT) solution was added to each well followed by 4 h incubation, then 40 μL of lysis buffer were added. The optical density (OD) of formazan formed from MTT was measured after 24 h using a spectrophotometric microplate reader (Spark, Tecan, Männedorf, Switzerland) at […] 570 nm.
(§6) The results were: determined from more than three independent experiments (three wells each) and presented as mean IC50 value ± SD.

The next series has as its system CF2TH cells. Put plainly: MTT cytotoxicity, CF2TH normal cell line. To be noted: Canis lupus familiaris, 72 h, mean ± SD, read-out: IC50 values after 72 h. In kind it is cell-based, canine.
Text: as §1, §2, §3, §4, §5, §6

For another series, the system named is CLBL-1 cells. Put plainly: MTT cytotoxicity, CLBL-1. The series is classed as cell-based, canine. To be noted: Canis lupus familiaris; CLBL-1, MTT, 72 h, mean ± SD; read-out: IC50 values after 72 h.
Text: as §1, §2, §3, §4, §5, §6

Another series deals with K9NK cells. Put plainly: MTT cytotoxicity, K9NK. In kind it is cell-based, canine. To be noted: Canis lupus familiaris, 72 h, mean ± SD, read-out: IC50 values after 72 h.
Text: as §1, §2, §3, §4, §5, §6

Series [2] deals with RDSVS-TCC1, GL-1, CLBL-1, CF2TH cells. Put plainly: MTT cytotoxicity, all lines tested except K9NK. In kind it is cell-based, canine. To be noted: Canis lupus familiaris, 72 h.
Text: as §1, §2, §3, §4, §5, §6

Another series concerns RDSVS-TCC1 cells. Put plainly: MTT cytotoxicity, RDSVS-TCC1. In kind it is cell-based, canine. To be noted: Canis lupus familiaris, 72 h, mean ± SD, read-out: IC50 values after 72 h.
Text: as §1, §2, §3, §4, §5, §6

The nature of series [3]: Hemolysis of red blood cells. The series is classed as cell-based. To be noted: human, human red blood cells (erythrocytes), read-out: degree of haemolysis. The method, then:
The cytotoxicity level of the compounds was assessed through a haemolytic activity test, measuring the impact of six compounds at concentrations of […] on human red blood cells (RBCs). According to toxicity categorization, compounds are considered highly toxic if they cause a haemolysis rate of 90–100% and are considered non-toxic if the haemolysis rate falls within the range of 0–9%[28].
Hemolysis, a method to assess the release of hemoglobin from red blood cells (RBCs), was comprehensively explained in our prior research.
For erythrocytes with a hematocrit level of 12%, the compounds were introduced at concentrations of 10, 20, 40 and 60 μM. The prepared samples were kept at 37 °C for 1 and 24 h.
After the incubation period, the samples underwent centrifugation, and the hemoglobin concentration in the supernatants was quantified using a UV–VIS spectrophotometer (Specord 40, AnalytikJena) at a wavelength of 540 nm. The percentage of RBCs hemolysis were determined by comparing the absorbance of hemoglobin in the tested samples to the absorbance of hemoglobin in completely hemolyzed cells (100%). Samples achieving total hemolysis (100%) were generated by adding distilled water.

Turning to `O=c1cc(-c2ccccc2)oc2c(Br)c(O)c(O)c(O)c12` [8-bromobaicalei], in series [1], the IC50 was 10 ± 3 µM.
`O=c1cc(-c2ccccc2Cl)oc2ccccc12` [D1, 2′-chloroflavone] had a melting point of 109 to 110 °C. Besides, in the series on GL-1 cells, the IC50 was determined as 26.5 ± 3.05 µM. For the same compound, the IC50 with CF2TH cells was found to be 28.2 ± 6.6 µM. In addition, the half-inhibitory concentration (IC50) in the series on CLBL-1 cells was found to be 26.6 ± 3.61 µM. Also, the IC50 in the series on K9NK cells was determined as 59.9 ± 14.7 µM. The same compound had an IC50 in [2] of roughly 30 µM. In the series with RDSVS-TCC1 cells, the IC50 was determined as 32.6 ± 8.04 µM.
Consider `O=c1cc(-c2cccc(Cl)c2)oc2ccccc12` [D2, 3′-chloroflavone], for which the IC50 is 26.5 ± 4.57 µM in the series with GL-1 cells; 22.9 ± 6.88 µM in the series on CF2TH cells; 26.3 ± 6.33 µM in the series with CLBL-1 cells; 31.2 ± 6.87 µM with K9NK cells; roughly 30 µM in series [2]; 31.6 ± 5.97 µM with RDSVS-TCC1 cells. In series [3] (40 μM), the hemolysis at 24 h, 40 µM stood at 16 ± 1.78%. For the same compound, in [3] (50 μM), the hemolysis at 24 h, 50 µM amounted to 22.7 ± 1.98%.
For `O=c1cc(-c2ccc(Cl)cc2)oc2ccccc12` [D3, 4′-chloroflavone], the IC50 in the series with GL-1 cells was 35.1 ± 6.17 µM; in the series on CF2TH cells, 28.4 ± 5.02 µM; in the series on CLBL-1 cells, 32.8 ± 2.11 µM; in the series with K9NK cells, 19.4 ± 6.75 µM; in series [2], roughly 30 µM; in the series on RDSVS-TCC1 cells, 28.2 ± 5.62 µM.
On to `O=c1cc(-c2ccccc2)oc2ccc(Cl)cc12` [D4, 6-chloroflavone], for which the IC50 in the series with GL-1 cells came out at 62.4 ± 2.89 µM; with CF2TH cells, 80.9 ± 14.1 µM; in the series with CLBL-1 cells, 74.4 ± 28.7 µM; in the series on K9NK cells, 35.6 ± 3.41 µM; in the series with RDSVS-TCC1 cells, 58.7 ± 13.3 µM. For the same compound, the hemolysis at 24 h, 30 µM in [3] (30 μM) was 10.8 ± 5.46%.
`O=c1cc(-c2ccccc2)oc2c(Cl)cc(Cl)cc12` [D5, 6,8-dichloroflavone]: the IC50 with GL-1 cells worked out at 38.8 ± 6.48 µM; in the series with CF2TH cells, 28.5 ± 18 µM; in the series with CLBL-1 cells, 76.4 ± 23.2 µM; with K9NK cells, 30.5 ± 13.8 µM; with RDSVS-TCC1 cells it was 43 ± 11.3 µM.
Consider `O=c1cc(-c2ccccc2)oc2c(Br)cc(Cl)cc12` [D6, 8-bromo-6-chloroflavone], for which the half-inhibitory concentration (IC50) in the series with GL-1 cells is 47.2 ± 1.41 µM; in the series with CF2TH cells, 38.1 ± 7.87 µM; in the series on CLBL-1 cells, 38.1 ± 7.81 µM; in the series with K9NK cells it was 29.1 ± 16.2 µM; with RDSVS-TCC1 cells it was 37.7 ± 14.4 µM.
